Source: patent US20090048293A1 (priority 2005, published 2009)
Where “and” joins values, the source holds several entries; their conditions need not be identical. Equal values may be shown once. Entries after “also recorded” stand apart in the source; their conditions may differ. Read-outs that look alike come from different tables or passages of the source. Where a SMILES comes first, the peptide text is derived from it. [ ]: non-standard residue; d: D form. The star is where a group is joined. Sta = CC(C)C[C@H](N)[C@@H](O)CC(=O)O; Isovaleryl = CC(C)CC(=O)*

Key:
[1] = system: InhA; type: biochemical, Bacillus anthracis
[2] = system: syndecan-1 shedding of NMuMG cells; type: cell-based, murine
[3] = system: syndecan-1 ectodomain shedding from NMuMG cells; type: cell-based, murine
[4] = system: Npr599; type: biochemical, Bacillus anthracis
[5] = system: TLR2; type: cell-based

## CNC(=O)[C@H](Cc1c[nH]c2ccccc12)NC(=O)[C@@H](CC(=O)NO)CC(C)C [Galardin, Galardin (Ilomastat)]
[1]
  Effect on InhA caseinolytic activity (in words): less sensitive; also recorded: not InhA activity significantly
  Remaining protease activity (%) InhA: 70.5% and 104% and 103.3%
[2]
  Effect on AnlO-induced syndecan-1 shedding (in words): reduce
[3]
  Effect on Npr599-activated syndecan-1 shedding (in words): abrogate
[4]
  Effect on Npr599 caseinolytic activity (in words): inhibits Npr599 activity strongly

## O=C(O)CN(CCN(CC(=O)O)CC(=O)O)CC(=O)O [EDTA, ethylenediaminetetraacetic acid]
[1]
  Effect on InhA caseinolytic activity (in words): rapidly inhibited
  Remaining protease activity (%) InhA: 28.2% and 28.7% and 33.1%
[4]
  Effect on Npr599 caseinolytic activity (in words): rapidly inhibited
  Remaining protease activity (%) Npr599: 6.5% and 9.5% and 10.5%

## CCCCCCCCCCCCOS(=O)(=O)[O-].[Na+] [SDS]
[4]; 3.5 μM
  Activation of Npr599: approximately 2.4 fold

## O=S(=O)(F)Cc1ccccc1 [PMSF, phenylmethanesulfonyl fluoride]
[1]
  Remaining protease activity (%) InhA: 111.1% and 109.8% and 94.7%
[4]
  Remaining protease activity (%) Npr599: 88.2% and 100.9% and 87.2%

## [Cu+2] [Cu2+]
[1]
  Effect on InhA caseinolytic activity (in words): inhibit
  Remaining activity (%) InhA: 0 (0.0) %
[4]
  Effect on Npr599 caseinolytic activity (in words): inhibit
  Remaining activity (%) Npr599: 1 (1.0) % and 0 (0.0) %

## CC(C)C[C@H](NP(=O)(O)O[C@@H]1O[C@@H](C)[C@H](O)[C@@H](O)[C@H]1O)C(=O)N[C@@H](Cc1c[nH]c2ccccc12)C(=O)O [Phosphoramidon, phosphoramidon]
[1]
  Effect on InhA caseinolytic activity (in words): less sensitive
  Remaining protease activity (%) InhA: 45.3% and 80.3% and 87.1%
[3]
  Effect on Npr599-activated syndecan-1 shedding (in words): abrogate

## c1cnc2c(c1)ccc1cccnc12 [1,10-phenanthroline, 1, 10-phenanthroline]
[1]
  Effect on InhA caseinolytic activity (in words): rapidly inhibited
  Remaining protease activity (%) InhA: 0%
[1]; 1 mM
  Effect on InhA caseinolytic activity (in words): completely abolishes
[2]
  Effect on AnlO-induced syndecan-1 shedding (in words): reduce
  Effect on LeTx-induced syndecan-1 shedding (in words): reduce
[3]
  Effect on Npr599-activated syndecan-1 shedding (in words): abrogate
[4]
  Effect on Npr599 caseinolytic activity (in words): rapidly inhibited
[4]; 1 mM
  Effect on Npr599 caseinolytic activity (in words): completely abolishes
[5]
  Effect on TLR2 signaling stimulated by B. anthracis culture supernatant (in words): abrogated

## COc1cccc(-c2cc(=O)c3ccccc3o2)c1N [PD98059]
[3]
  Effect on protease-enhanced syndecan-1 release (in words): strongly inhibits
  Effect on protease-enhanced syndecan-1 shedding (in words): some stimulatory effect

## CC(C)CC(=O)N[C@H](C(=O)N[C@H](C(=O)N[C@@H](CC(C)C)[C@@H](O)CC(=O)N[C@@H](C)C(=O)N[C@@H](CC(C)C)[C@@H](O)CC(=O)O)C(C)C)C(C)C [Pepstatin A, pepstatin A] (Isovaleryl-VV[Sta]A[Sta]-OH)
[4]
  Remaining protease activity (%) Npr599: 67.6% and 75.3% and 77.9%

## [Mg+2] [Mg2+]
[1]
  Effect on InhA caseinolytic activity (in words): do not
  Remaining activity (%) InhA: 76 (6.1) % and 97 (1.7) %
[4]
  Effect on Npr599 caseinolytic activity (in words): do not
  Remaining activity (%) Npr599: 83 (2.8) % and 97 (1.4) %

## [Fe+2] [Fe2+]
[1]
  Effect on InhA caseinolytic activity (in words): inhibit
[4]
  Effect on Npr599 caseinolytic activity (in words): inhibit

## [Ni+2] [Ni2+]
[1]
  Remaining activity (%) InhA: 45 (3.4) % and 69 (1.3) %
[4]
  Remaining activity (%) Npr599: 46 (1.4) % and 77 (1.4) %

## Cc1ccc(C(=O)Nc2ccc(S(=O)(=O)O)c3cc(S(=O)(=O)O)cc(S(=O)(=O)O)c23)cc1NC(=O)c1cccc(NC(=O)Nc2cccc(C(=O)Nc3cc(C(=O)Nc4ccc(S(=O)(=O)O)c5cc(S(=O)(=O)O)cc(S(=O)(=O)O)c45)ccc3C)c2)c1 [suramin]
[2]
  Effect on AnlO-induced syndecan-1 shedding (in words): reduce
  Effect on LeTx-induced syndecan-1 shedding (in words): reduce
[3]
  Effect on syndecan-1 shedding induced by proteases (in words): effectively inhibits
[3]; 20 μM
  Effect on syndecan shedding (in words): stimulates

## CC(=O)N[C@@H](CC(C)C)C(=O)N[C@@H](CC(C)C)C(=O)N[C@H](C=O)CCCNC(=N)N [Leupeptin, leupeptin]
[1]
  Remaining protease activity (%) InhA: 75.1% and 105.6% and 111.4%
[4]
  Remaining protease activity (%) Npr599: 95.4% and 106.2%

## [Zn+2] [Zn2+]
[1]
  Effect on InhA caseinolytic activity (in words): inhibit
[4]
  Effect on Npr599 caseinolytic activity (in words): inhibit

## Cl.N[C@@H](CS)C(=O)O [L-Cysteine.HCl]
[1]; 1 mM
  Effect on InhA caseinolytic activity (in words): no substantial inhibiting activity
[4]; 1 mM
  Effect on Npr599 caseinolytic activity (in words): no substantial inhibiting activity

## OCCS [b-mercaptoethanol, β-mercaptoethanol]
[1]
  Remaining protease activity (%) InhA: 85.8% and 105.8% and 113.4%
[1]; 1 mM
  Effect on InhA caseinolytic activity (in words): no substantial inhibiting activity
[4]
  Remaining protease activity (%) Npr599: 85.4% and 133.4% and 120.7%
[4]; 1 mM
  Effect on Npr599 caseinolytic activity (in words): no substantial inhibiting activity

## CC(C)C[C@H](NC(=O)[C@H]1O[C@@H]1C(=O)O)C(=O)NCCCCN=C(N)N [E-64]
[1]
  Remaining protease activity (%) InhA: 59.1% and 78.4% and 83.5%
[4]
  Remaining protease activity (%) Npr599: 74.1% and 76.1% and 79.5%

## [Mn+2] [Mn2+]
[1]
  Effect on InhA caseinolytic activity (in words): do not
  Remaining activity (%) InhA: 103 (2.5) % and 91 (5.1) %
[4]
  Effect on Npr599 caseinolytic activity (in words): do not
  Remaining activity (%) Npr599: 79 (0.2) % and 96 (4.3) %

## O=C1c2ccccc2-c2n[nH]c3cccc1c23 [JNK inhibitor, JNK inhibitor II]
[3]
  Effect on protease-enhanced syndecan-1 release (in words): strongly inhibits
  Effect on protease-enhanced syndecan-1 shedding (in words): some stimulatory effect

## [Ca+2] [Ca2+]
[1]
  Effect on InhA caseinolytic activity (in words): do not
  Remaining activity (%) InhA: 91 (5.2) % and 94 (3.5) %
[4]
  Effect on Npr599 caseinolytic activity (in words): do not
  Remaining activity (%) Npr599: 86 (1.5) % and 97 (1.4) %

## O[C@@H](CS)[C@@H](O)CS [DTT]
[1]
  Effect on InhA caseinolytic activity (in words): inhibits
[4]
  Effect on Npr599 caseinolytic activity (in words): inhibits
